Experimental data reported in PubChem BioAssay (NCI).
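Dose response: 5 concentrations. Exposure: 48 h. Format: 96-well plates. Endpoint: linear interpolation; highest concentration if not reached. TGI: total growth inhibition.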

What was measured:
Experiment in all cases: inhibition of tumour cell growth, NCI panel, 48 h
NCI-H460 lung = system: NCI-H460 lung
PC-3 prostate = system: PC-3 prostate
MDA-MB-435 = system: MDA-MB-435
DU-145 prostate = system: DU-145 prostate
COLO 205 colon = system: COLO 205 colon
IGROV1 ovarian = system: IGROV1 ovarian
HCT-116 colon = system: HCT-116 colon
SF-539 CNS = system: SF-539 CNS
LOX IMVI melanoma = system: LOX IMVI melanoma
U251 CNS = system: U251 CNS
NCI-H226 lung = system: NCI-H226 lung
UACC-257 melanoma = system: UACC-257 melanoma
OVCAR-4 ovarian = system: OVCAR-4 ovarian
T-47D breast = system: T-47D breast
BT-549 breast = system: BT-549 breast
HL-60(TB) leukemia = system: HL-60(TB) leukemia
MDA-MB-231 breast = system: MDA-MB-231 breast
OVCAR-3 ovarian = system: OVCAR-3 ovarian
MCF7 breast = system: MCF7 breast
RXF 393 renal = system: RXF 393 renal
HOP-62 NSCLC = system: HOP-62 NSCLC
CCRF-CEM leukemia = system: CCRF-CEM leukemia
MDA-N = system: MDA-N
A549 NSCLC = system: A549 NSCLC
SF-295 CNS = system: SF-295 CNS
SF-268 CNS = system: SF-268 CNS
NCI/ADR-RES ovarian = system: NCI/ADR-RES ovarian
SNB-75 CNS = system: SNB-75 CNS
A498 renal = system: A498 renal
SK-MEL-28 melanoma = system: SK-MEL-28 melanoma
SK-OV-3 ovarian = system: SK-OV-3 ovarian
K-562 leukemia = system: K-562 leukemia
NCI-H23 lung = system: NCI-H23 lung
786-0 renal = system: 786-0 renal
SK-MEL-2 melanoma = system: SK-MEL-2 melanoma
UACC-62 melanoma = system: UACC-62 melanoma
CAKI-1 renal = system: CAKI-1 renal
EKVX NSCLC = system: EKVX NSCLC
M14 melanoma = system: M14 melanoma
UO-31 renal = system: UO-31 renal
OVCAR-8 ovarian = system: OVCAR-8 ovarian
MOLT-4 leukemia = system: MOLT-4 leukemia
SW-620 colon = system: SW-620 colon
ACHN renal = system: ACHN renal
HT29 colon = system: HT29 colon
HS 578T breast = system: HS 578T breast
MALME-3M melanoma = system: MALME-3M melanoma
HCC-2998 colon = system: HCC-2998 colon
KM12 colon = system: KM12 colon
RPMI-8226 leukemia = system: RPMI-8226 leukemia
HCT-15 colon = system: HCT-15 colon
SK-MEL-5 melanoma = system: SK-MEL-5 melanoma
SN12C renal = system: SN12C renal
TK-10 renal = system: TK-10 renal
SNB-19 CNS = system: SNB-19 CNS
HOP-92 NSCLC = system: HOP-92 NSCLC
OVCAR-5 ovarian = system: OVCAR-5 ovarian
NCI-H522 lung = system: NCI-H522 lung

Measured: TGI

N#Cc1c(=N)cc2c3ccccc3oc3c(C#N)c(N)[nH]c1c32
> 100 µM: NCI-H460 lung | PC-3 prostate | MDA-MB-435 | DU-145 prostate | COLO 205 colon | IGROV1 ovarian | HCT-116 colon | SF-539 CNS | LOX IMVI melanoma | U251 CNS | NCI-H226 lung | UACC-257 melanoma | OVCAR-4 ovarian | T-47D breast | BT-549 breast | HL-60(TB) leukemia | MDA-MB-231 breast | OVCAR-3 ovarian | MCF7 breast | RXF 393 renal | HOP-62 NSCLC | CCRF-CEM leukemia | MDA-N | A549 NSCLC | SF-295 CNS | SF-268 CNS | NCI/ADR-RES ovarian | SNB-75 CNS | A498 renal | SK-MEL-28 melanoma | SK-OV-3 ovarian | K-562 leukemia | NCI-H23 lung | 786-0 renal | SK-MEL-2 melanoma | UACC-62 melanoma | CAKI-1 renal | EKVX NSCLC | M14 melanoma | UO-31 renal | OVCAR-8 ovarian | MOLT-4 leukemia | SW-620 colon | ACHN renal | HT29 colon | HS 578T breast | MALME-3M melanoma | HCC-2998 colon | KM12 colon | RPMI-8226 leukemia | HCT-15 colon | SK-MEL-5 melanoma | SN12C renal | TK-10 renal | SNB-19 CNS | HOP-92 NSCLC | OVCAR-5 ovarian

CCN(CC)CCn1ncc2c(N)ncnc21
> 100 µM: NCI-H460 lung | PC-3 prostate | MDA-MB-435 | DU-145 prostate | COLO 205 colon | IGROV1 ovarian | HCT-116 colon | LOX IMVI melanoma | U251 CNS | NCI-H226 lung | OVCAR-4 ovarian | T-47D breast | BT-549 breast | MDA-MB-231 breast | OVCAR-3 ovarian | MCF7 breast | RXF 393 renal | HOP-62 NSCLC | CCRF-CEM leukemia | MDA-N | A549 NSCLC | SF-295 CNS | SF-268 CNS | NCI/ADR-RES ovarian | A498 renal | SK-MEL-28 melanoma | SK-OV-3 ovarian | K-562 leukemia | NCI-H23 lung | 786-0 renal | SK-MEL-2 melanoma | UACC-62 melanoma | CAKI-1 renal | EKVX NSCLC | M14 melanoma | UO-31 renal | OVCAR-8 ovarian | MOLT-4 leukemia | SW-620 colon | ACHN renal | HT29 colon | HS 578T breast | MALME-3M melanoma | HCC-2998 colon | KM12 colon | RPMI-8226 leukemia | NCI-H522 lung | HCT-15 colon | SK-MEL-5 melanoma | SN12C renal | TK-10 renal | SNB-19 CNS | HOP-92 NSCLC | OVCAR-5 ovarian
